Measurements published in US20060199849A1, “Solid lercanidipine free base” (Recordati Ireland Limited, priority 2005, published 2006).
Where a name gives a salt, the structure may show the parent alone.

Test: Comparison of physical properties: solubility in esters, ketones, ethers
Type: physicochemical
Conditions: organic solvents: esters
Protocol: The following is a comparative example, comparing substantially pure lercanidipine free base prepared as described in example 1 (a to d) with crude free base prepared by the method of U.S. Pat. No. 4,705,797 and lercanidipine hydrochloride. Crude free base was prepared as described below. Lercanidipine hydrochloride was obtained from Recordati S.p.A., Milan, Italy.

Solubility in esters, ketones, ethers	Solubility in esters, ketones, ethers (hydrochloride)	Structure (SMILES)
Very soluble	–	COC(=O)C1=C(C)NC(C)=C(C(=O)OC(C)(C)CN(C)CCC(c2ccccc2)c2ccccc2)C1c1cccc([N+](=O)[O-])c1 (centres unmarked) [Crude Free Base, methyl 1,1,N-trimethyl-N-(3,3-diphenylpropyl)-2-aminoethyl 1,4-dihydro-2,6-dimethyl-4-(3-nitrophenyl)pyridine-3,5-dicarboxylate]
–	insoluble	COC(=O)C1=C(C)NC(C)=C(C(=O)OC(C)(C)CN(C)CCC(c2ccccc2)c2ccccc2)C1c1cccc([N+](=O)[O-])c1 (centres unmarked) [Lercanidipine Hydrochloride, lercanidipine hydrochloride]
